This is an account of results in publication PMC6284057, “Combined Antibacterial Effects of Goat Cathelicidins With Different Mechanisms of Action” (Frontiers in Microbiology, 2018).

Where two headings read alike, the source gives them in different places. No end group written: not given here. Bounds are passed on as bounds.

The subject of data set [1] is A. baumannii (XDR CI 2675). The data set is described as follows: microbe, parasite or virus in culture. The format is cell-based, Acinetobacter baumannii. The following applies: read-out: Minimum inhibitory concentration. In outline: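 Serial peptide dilutions (0.1% BSA diluent) were challenged with an equal part of mid-log culture in 2× MH broth, ±1.8% NaCl, giving 10^6 CFU/ml. Incubation: 24 h, 37°C, 900 rpm. Reported MIC = median, ≥3 experiments.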

Data set [2] relates to E. coli XDR CI 1057. The conditions noted are these: for MIC value at transfer “1”: MH broth with 0.9% NaCl, 37°C, legend covers both strains, values match XDR CI 1057. On the procedure:
Resistance induction experiments were performed using the previously described method ([Chernysh et al., 2015]) with some modifications. Briefly, on day 1, the overnight culture of wild-type bacteria was diluted with the 2× MH broth containing 1.8% NaCl so that to reach a final cell concentration of 10^6 CFU/ml. 50 μl aliquots of the obtained bacterial suspension were added to 50 μl of the peptide solutions serially diluted with 0.1% water solution of BSA in 96-well microplates (Eppendorf #0030730011). After incubation at 37°C and 900 rpm for 22 ± 2 h, MICs were determined as described above. For each subsequent daily transfer, 5 μl of the inoculum taken from the first well with a sub-inhibitory drug concentration were diluted with 1 ml of the fresh 2× MH broth supplemented with 1.8% NaCl. […] Control serial passages in the absence of the agent were also performed.

Data set [3] has as its system E. coli XDR CI 1057 (26 days with synergy combination). The following applies: Table 4, strain after 26 days with synergy combination (selection in MH broth with 0.9% NaCl). On the procedure:
(§1) Antimicrobial assay was performed as described previously ([Panteleev et al., 2017b]). Briefly, mid-log phase bacterial test cultures were diluted with the 2× Mueller-Hinton broth (MH, Sigma) supplemented with 1.8% NaCl or without it so that to reach a final cell concentration of 10^6 CFU/ml. 50 μl aliquots of the obtained bacterial suspension were added to 50 μl of the peptide solutions serially diluted with 0.1% water solution of bovine serum albumin (BSA) in 96-well flat-bottom polystyrene microplates (Eppendorf #0030730011). […] The results were expressed as the median values determined on the basis of at least three independent experiments performed in triplicate.
(§2) Resistance induction experiments were performed using the previously described method ([Chernysh et al., 2015]) with some modifications. Briefly, on day 1, the overnight culture of wild-type bacteria was diluted with the 2× MH broth containing 1.8% NaCl so that to reach a final cell concentration of 10^6 CFU/ml. 50 μl aliquots of the obtained bacterial suspension were added to 50 μl of the peptide solutions serially diluted with 0.1% water solution of BSA in 96-well microplates (Eppendorf #0030730011). After incubation at 37°C and 900 rpm for 22 ± 2 h, MICs were determined as described above. For each subsequent daily transfer, 5 μl of the inoculum taken from the first well with a sub-inhibitory drug concentration were diluted with 1 ml of the fresh 2× MH broth supplemented with 1.8% NaCl. […] 26 repeated passages in the presence of antimicrobial agents were made for each bacterial strain during the experiment. […] Control serial passages in the absence of the agent were also performed.

Data set [4] relates to E. coli XDR CI 1057 (26 days without antimicrobial agent). On the procedure: as §1, §2
The subject of data set [5] is E. coli XDR CI 1057 (26 days with polymyxin B). The conditions noted are these: Table 4, strain after 26 days with polymyxin B (selection in MH broth with 0.9% NaCl). On the procedure: as §1, §2
Data set [6] relates to E. coli XDR CI 1057 (26 days with mini-ChBac7.5Nα). How it is done: as §1, §2
In data set [7] the test system is A. baumannii (XDR CI 2675). The class given is cell-based, Acinetobacter baumannii. The conditions noted are these: for Fractional inhibitory concentration (FICA, FICB): [X]/MICX; for Fractional inhibitory concentration (FICA, FICB) / MIC of the peptide when used together ([A], [B]): 0.9% NaCl; for MIC of the peptide when used together ([A], [B]): in the mix ChMAP-28 + mini-ChBac7.5Nα, other peptide at sub-inhibitory concentration; for MIC of the individual peptide (MICA, MICB): peptide used individually, medium with physiological NaCl (0.9%), median of 3 experiments in duplicate. On the procedure:
(§3) Antimicrobial assay was performed as described previously ([Panteleev et al., 2017b]). Briefly, mid-log phase bacterial test cultures were diluted with the 2× Mueller-Hinton broth (MH, Sigma) supplemented with 1.8% NaCl or without it so that to reach a final cell concentration of 10^6 CFU/ml. 50 μl aliquots of the obtained bacterial suspension were added to 50 μl of the peptide solutions serially diluted with 0.1% water solution of bovine serum albumin (BSA) in 96-well flat-bottom polystyrene microplates (Eppendorf #0030730011). After incubation at 37°C and 900 rpm for 24 h the minimum inhibitory concentrations (MIC) were determined as the lowest peptide concentrations that prevented growth of a test microorganism observed as visible turbidity. The results were expressed as the median values determined on the basis of at least three independent experiments performed in triplicate.
(§4) The peptides were twofold serially diluted with 0.1% BSA in 96-well microplates (Eppendorf #0030730011). Then, the peptide solutions were mixed in the new test plate crosswise in such a way that the resulting checkerboard contained each combination of the cathelicidins in eight doubly increasing concentrations, with wells containing the highest concentration of each peptide at opposite corners ([Berditsch et al., 2015]). Then, the antimicrobial assay was performed as described in the previous section. […] The results were expressed as the median values determined on the basis of three independent experiments performed in duplicate. Estimation of synergistic effects of different cathelicidins was performed by calculating the fractional inhibitory concentration index (FICI) according to the equation: FICI = [À]/MICÀ + [B]/MICB, where MICÀ and MICB are the MICs of the individual substances, while [A] and [B] are the MICs of A and B when used together. A synergistic effect was defined at a FICI ≤ 0.5.

Data set [8] relates to S. aureus 209P. The format is cell-based, Staphylococcus aureus. The following applies: 24 h. How it is done: as §3, §4
Data set [9] relates to human red blood cells (hRBC). Nature of the data set: Hemolysis (hemoglobin release assay). The conditions noted are these: 1.5 h incubation, hRBC of 3 independent donors. The class given is cell-based. How it is done: Hemolytic activity of the peptides was tested against the fresh suspension of human red blood cells (hRBC) using the hemoglobin release assay as described previously ([Panteleev et al., 2016]). Three experiments were performed with the hRBC from blood samples obtained from independent donors. The obtained data were represented as average means with standard deviations. The cytotoxicity of the peptides against HEK293T (transformed human embryonic kidney cells) and HEF (human embryonic fibroblasts) cell lines was studied using the colorimetric 3-(4,5-dimethylthiazol-2-yl)-2,5-diphenyltetrazolium bromide (MTT) dye reduction assay according to ([Panteleev and Ovchinnikova, 2017]). Three independent experiments were performed for each peptide. Half maximal inhibitory concentration (IC50) values were estimated as described previously ([Kuzmin et al., 2018]).

Setting [10] is: 0.9% NaCl, Mueller-Hinton broth, 10^6 CFU/ml, 0.1% BSA, 37°C, 24 h, median of at least 3 experiments.
The mark [11] stands for this setting: Without NaCl, Mueller-Hinton broth, 10^6 CFU/ml, 0.1% BSA, 37°C, 24 h, median of at least 3 experiments.
Setting [12] is: Table 4, strain after 26 days without antimicrobial agent (selection in MH broth with 0.9% NaCl).
[13] abbreviates: With 0.9% NaCl, control strain, 26 days without antimicrobial agent.
The mark [14] stands for this setting: Without salt, control strain, 26 days without antimicrobial agent.
The mark [15] stands for this setting: Table 4, strain after 26 days with mini-ChBac7.5Nα (selection in MH broth with 0.9% NaCl).
Setting [16] is: With 0.9% NaCl, resistant strain, 26 days with mini-ChBac7.5Nα.
Setting [17] is: Without salt, resistant strain, 26 days with mini-ChBac7.5Nα.

With GRFKRFRKKLKRLWHKVGPFVGPILHY [ChMAP-28], the MIC stood at 0.25 µM in [1] (setting [10]); 0.25 µM in data set [1] (Table S2, XDR clinical isolate, NaCl content of medium not stated); 0.03 µM in data set [1] (setting [11]). Besides, the “MIC value at transfer “1”” value in data set [2] was 0.125 µM. The Minimum inhibitory concentration in data set [3] stood at 0.125 µM; in [4] (setting [12]), 0.125 µM; in data set [4] (setting [13]), 0.125 µM; in [4] (setting [14]), 0.125 µM; in [5], 0.25 µM; in [6] (setting [15]), 0.125 µM. For the same sequence, the Minimum inhibitory concentration in data set [6] (setting [16]) and in data set [6] (setting [17]) was 0.125 µM each time. Further, the “Fractional inhibitory concentration (FICA, FICB)” value is on record as 0.125 in data set [7] and 0.063 in [8]. Further, in data set [7], the “MIC of the peptide when used together ([A], [B])” value is 0.03 µM. In addition, the “MIC of the individual peptide (MICA, MICB)” value in data set [7] was found to be 0.25 µM; in data set [8] it was 0.5 µM. The “half maximal hemolysis concentration (HC50)” value in data set [9] (hemoglobin release) is roughly 100 µM.

Take “RRLRPRRPRLPRPRPRPRPRPR [mini-ChBac7.5Nα]”: the MIC in data set [1] (setting [10]) is reported as greater than 32 µM; in data set [1] (setting [11]) it was 2 µM. Also, the “MIC value at transfer “1”” value in [2] stood at 8 µM. Moreover, in data set [2] (after eight passages, highest concentration tested 256 μM, MH broth, 0.9% NaCl), the “MIC value after selection” value is greater than 256 µM. Also, the Minimum inhibitory concentration in data set [3] is 8 µM; in [4] (setting [12]) it was 8 µM; in data set [4] (setting [13]) it was 8 µM; in [4] (setting [14]) it was 1 µM; in data set [5], 64 µM; in data set [6] (setting [15]) it was greater than 128 µM. For the same sequence, the Minimum inhibitory concentration in [6] (setting [16]) is greater than 256 µM; in data set [6] (setting [17]), 1 µM. Further, the “Fractional inhibitory concentration (FICA, FICB)” value is 0.008 in data set [7] and 0.125 in data set [8]. Also, the “MIC of the peptide when used together ([A], [B])” value in [7] was found to be 0.5 µM. Also, the “MIC of the individual peptide (MICA, MICB)” value is greater than 32 µM in [7] and 16 µM in [8]. In data set [9] (at the concentration of 100 μM), the “red blood cells lysed” value worked out at 2%.
